pIC50: −log10 of the molar value.

In assay [1] the target is T1, squalene synthetase (Homo sapiens, UniProt P37268).
T1 construct: endogenous in cells; host or cells: HepG2 (human hepatic carcinoma) cells, microsome fraction
T1 sequence (P37268 1-417): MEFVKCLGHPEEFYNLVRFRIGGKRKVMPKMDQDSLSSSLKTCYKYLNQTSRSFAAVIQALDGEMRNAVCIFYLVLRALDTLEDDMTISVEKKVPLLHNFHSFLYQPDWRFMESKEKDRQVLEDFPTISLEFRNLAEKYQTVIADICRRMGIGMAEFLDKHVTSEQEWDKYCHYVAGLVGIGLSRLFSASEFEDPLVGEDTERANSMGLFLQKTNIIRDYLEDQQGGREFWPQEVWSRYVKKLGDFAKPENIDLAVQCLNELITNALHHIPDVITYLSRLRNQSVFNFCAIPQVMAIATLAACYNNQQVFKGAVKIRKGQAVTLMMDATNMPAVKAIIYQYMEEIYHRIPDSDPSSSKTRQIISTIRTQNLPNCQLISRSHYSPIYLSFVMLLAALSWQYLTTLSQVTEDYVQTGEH
Kind of assay: Squalene synthetase inhibitory activity, human-derived enzyme (HepG2 microsome fraction). It counts as biochemical. The note with it: 5 uM [1-3H] farnesyl pyrophosphate, 37° C., 45 minutes. The protocol:
(§1) Assay Method of Squalene Synthetase Inhibitory Activity
(§2) The squalene synthetase inhibitory activity was assayed as follows with the enzyme solutions described in the subsequent Experimental Examples 1 and 2.
(§3) More specifically, an enzyme solution (protein content 0.8 ug) prepared in Experimental Example 1 or 2 was added to a solution (total volume 50 μl)) containing 5 uM [1-^3 H] farnesyl pyrophosphate (specific activity 25 uCi/mole), 1 mM NADPH, 5 mM MgCl2, 6 mM glutathione, a 100 mM buffer solution of potassium phosphate (pH 7.4) and a test drug (used as an aqueous solution or a DMSO solution), then the reaction was allowed to proceed at 37° C. for 45 minutes. To the reaction mixture was added 150 μl of a mixture of chloroform and methanol (1:2) to suspend the reaction, followed by adding 50 μl of chloroform and 50 μl of a 3N aqueous solution of sodium hydroxide. 50 μl of the chloroform layer (lower layer) containing the reaction mixture having squalene as the principal component and 3 ml of toluene-based liquid scintillator were mixed, and its radioactivity was determined by means of a liquid scintillation counter.
(§4) The squalene synthetase inhibitory activity was expressed in terms of the concentration inhibiting by 50% the radioactivity taken into the chloroform layer (IC50, molar concentration (M)).
Human hepatic carcinoma cells HepG2 (about 1×10^9 cells) obtained by incubation in a Dulbecco-modified Eagle's medium (37° C. in the presence of 5% CO2) were suspended in 10 ml of an ice-cooled buffer solution [100 mM potassium phosphate buffer (pH 7.4), 30 mM nicotinamide and 2.5 mM MgCl2 ]. The cells were crashed by means of ultrasonication (for 30 seconds, twice). From the sonicate thus obtained, the microsome fraction was obtained by the same procedure as in Experiment Example 1, which was suspended in an ice-cooled 100 mM potassium phosphate buffer (pH 7.4) (about 4 mg/ml protein concentration). This suspension was used as the enzyme solution. The results are shown in [Table 4].

In assay [2] the target is T2, squalene synthetase (Rattus norvegicus, UniProt Q02769).
T2 construct: from tissue; host or cells: rat liver microsome fraction (SD male rat, 6 weeks old)
T2 sequence (Q02769 1-416): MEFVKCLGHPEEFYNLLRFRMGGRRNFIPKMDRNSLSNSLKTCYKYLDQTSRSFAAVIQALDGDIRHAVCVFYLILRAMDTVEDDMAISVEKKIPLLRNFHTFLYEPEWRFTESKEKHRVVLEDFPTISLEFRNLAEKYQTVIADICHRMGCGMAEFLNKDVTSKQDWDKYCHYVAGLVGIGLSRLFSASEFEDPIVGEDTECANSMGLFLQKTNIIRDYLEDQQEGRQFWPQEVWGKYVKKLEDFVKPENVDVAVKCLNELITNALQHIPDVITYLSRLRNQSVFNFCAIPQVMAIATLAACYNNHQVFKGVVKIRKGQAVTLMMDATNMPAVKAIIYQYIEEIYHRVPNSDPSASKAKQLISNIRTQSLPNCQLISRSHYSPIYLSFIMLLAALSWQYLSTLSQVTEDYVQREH
Kind of assay: Squalene synthetase inhibitory activity, rat-derived enzyme (liver microsome fraction). Format: biochemical. The note with it: SD rat liver microsome fraction; 5 uM [1-3H] farnesyl pyrophosphate, 37° C., 45 minutes. The procedure: as §1, §2, §3, §4
An SD male rat (6 week old) was killed by bleeding, and its liver was excised. About 10 g of the liver was washed with a saline solution cooled with ice, which was then homogenized in 15 ml of an ice-cooled buffer solution [100 mM potassium phosphate (pH 7.4), 15 mM nicotinamide, 2 mM MgCl2 ], followed by centrifugation for 20 minutes (4° C.) with 10000×g. The supernatant layer was separated and subjected to further centrifugation for 90 minutes (4° C.) at 105000×g. The sediment was then suspended in an ice-cooled 100 mM phosphate buffer solution (pH 7.4), which was again subjected to centrifugation for 90 minutes (4° C.) at 105000×g. The sediment thus obtained (microsome fraction) was suspended in an ice-cooled 100 mM potassium phosphate buffer (pH 7.4) (about 40 mg/ml protein concentration, determined with BCA protein assay kit of Pias Co., Ltd.). This suspension was used as the enzyme solution.

One may read the pIC50 as the IC50 on a negative log10 scale, so that one unit is a factor of ten. Higher therefore signals a small IC50. At squalene synthetase [1], `COC(=O)C[C@H]1S[C@H](c2ccccc2OC)c2cc(Cl)ccc2N(CC(C)C)C1=O` (relative stereo) [Example 8-1, 3,5-trans-7-Chloro-5-(2-methoxyphenyl)-1-isobutyl-2-oxo-1,2,3,5-tetrahydro-4,1-benzothiazepine-3-acetic acid methyl ester] gave a pIC50 of 5.70.

With `CC(C)(C)CN1C(=O)[C@@H](CC(=O)O)S[C@H](c2ccccc2Cl)c2cc(Cl)ccc21` (relative stereo) [Example 9, 3,5-trans-7-Chloro-5-(2-chlorophenyl)-1-neopentyl-2-oxo-1,2,3,5-tetrahydro-4,1-benzothiazepine-3-acetic acid], the pIC50 at squalene synthetase [1] is 7.41; at squalene synthetase [2], 6.74. `CCCN1C(=O)[C@@H](CC(=O)O)S[C@H](c2ccccc2Cl)c2cc(Cl)ccc21` (relative stereo) [Example 10-2]: the pIC50 against squalene synthetase [1] is 7.38; against squalene synthetase [2], 7.21. `CC(C)CN1C(=O)[C@@H](CC(=O)O)S[C@H](c2ccccc2Cl)c2cc(Cl)ccc21` (relative stereo) [Example 10-5, 3,5-trans-7-Chloro-5-(2-chlorophenyl)-1-isobutyl-2-oxo-1,2,3,5-tetrahydro-4,1-benzothiazepine-3-acetic acid]: the pIC50 at squalene synthetase [1] was 7.60; against squalene synthetase [2], 7.29. On the same counts, the results for `CCCN1C(=O)[C@@H](CC(=O)O)S[C@H](c2ccccc2OC)c2cc(Cl)ccc21` (relative stereo) [Example 10-6] are 7.51 and 7.41. In the case of `COc1ccccc1[C@H]1S[C@H](CC(=O)O)C(=O)N(CC(C)C)c2ccc(Cl)cc21` (relative stereo) [Example 10-7, 3,5-trans-7-Chloro-5-(2-methoxyphenyl)-1-isobutyl-2-oxo-1,2,3,5-tetrahydro-4,1-benzothiazepine-3-acetic acid], the pIC50 was 7.89 on squalene synthetase [1] and 7.59 at squalene synthetase [2].

Consider `CC(C)(C)CN1C(=O)[C@@H](CC(=O)NCC(=O)O)S[C@H](c2ccccc2Cl)c2cc(Cl)ccc21` (relative stereo) [Example 23, N-[3,5-trans-7-Chloro-5-(2-chlorophenyl)-1-neopentyl-2-oxo-1,2,3,5-tetrahydro-4,1-benzothiazepine-3-acetyl]glycine], for which the figures for the pIC50 at squalene synthetase [1] and against squalene synthetase [2] were 7.89 and 7.66, respectively. As to `COc1ccccc1[C@H]1O[C@H](CC(=O)O)C(=O)N(CC(C)(C)C)c2sc(Cl)cc21` (relative stereo) [Example 33, 3,5-trans-7-Chloro-5-(2-methoxyphenyl)-1-neopentyl-2-oxo-1,2,3,5-tetrahydro-4,1-thieno[2,3-e]oxazepine-3-acetic acid], the figures for the pIC50 at squalene synthetase [1] and against squalene synthetase [2] were 7.14 and 7.06, respectively. On the same counts, the results for `COc1ccccc1C1SC(CC(=O)O)C(=O)N(CC(C)(C)C)c2ccc(Cl)cc21` (stereo not drawn) [Example 10-8, 3,5-trans-7-Chloro-5-(2-methoxyphenyl)-1-neopentyl-2-oxo-1,2,3,5-tetrahydro-4,1-benzothiazepine-3-acetic acid] are 7.89 and 7.64. On the same counts, the results for `CC(C)CN1C(=O)[C@@H](CC(=O)O)N[C@H](c2ccccc2Cl)c2cc(Cl)ccc21` [Example 14, (3R,5S)-1-Isobutyl-7-chloro-5-(2-chlorophenyl)-2,3,4,5-tetrahydro-2-oxo-1H-1,4-benzodiazepine-3-acetic acid] are 6.80 and 6.37. On the same counts, the results for `CC(C)CN1C(=O)C(CC(=O)O)CC(c2ccccc2Cl)c2cc(Cl)ccc21` (centres unmarked) [Example 26, 7-Chloro-5-(2-chlorophenyl)-1-isobutyl-2-oxo-2,3,4,5-tetrahydro-1H-[1]-benzazepine-3-acetic acid] are 6.92 and 6.41. Regarding `COc1cccc([C@H]2S[C@H](CC(=O)O)C(=O)N(CC(C)(C)C)c3ccc(Cl)cc32)c1OC` [Example 43, (3R,5S)-7-Chloro-5-(2,3-dimethoxyphenyl)-1-neopentyl-2-oxo-1,2,3,5-tetrahydro-4,1-benzothiazepine-3-acetic acid], the pIC50 against squalene synthetase [1] was 8.23; on squalene synthetase [2], 8.03. As for `COc1ccc([C@H]2S[C@H](CC(=O)O)C(=O)N(CC(C)(C)C)c3ccc(Cl)cc32)c(OC)c1` [Example 51, (3R,5S)-7-Chloro-5-(2,4-dimethoxyphenyl)-1-neopentyl-2-oxo-1,2,3,5-tetrahydro-4,1-benzothiazepine-3-acetic acid], the pIC50 was 7.74 against squalene synthetase [1] and 7.68 against squalene synthetase [2]. For `CC(C)(C)CN1C(=O)N(CC(=O)O)CC(c2ccccc2Cl)c2cc(Cl)ccc21` (centres unmarked) [Example 53, 7-Chloro-5-(2-chlorophenyl)-1-neopentyl-2-oxo-1,2,4,5-tetrahydro-3H-1,3-benzodiazepine-3-acetic acid], the pIC50 against squalene synthetase [1] was 6.89; at squalene synthetase [2] it was 6.54. `COc1cccc([C@H]2S[C@H](Cc3nnn[nH]3)C(=O)N(CC(C)(C)C)c3ccc(Cl)cc32)c1OC` [Example 59, (3R,5S)-7-Chloro-5-(2,3-dimethoxyphenyl)-1-neopentyl-3-(tetrazol-5-yl)methyl-1,2,3,5-tetrahydro-4,1-benzothaizepin-2-one]: the pIC50 against squalene synthetase [1] was 8.00; at squalene synthetase [2], 7.80.
